In patent publication US8080529B2, “Macrolides with anti-inflammatory activity” (Glaxo Group Limited, priority 2005, dated 2011):
Where two headings read alike, the source gives them in different places.

Columns and labels:
Type in all cases: cell-based
[1] = tested on: TNF-α; test: Inhibition of TNF-α production by stimulated human peripheral blood leukocytes in vitro; conditions: Homo sapiens, Leukocyte, read-out: Percentage of inhibition of TNF-α production
Description: (§1) Test substances used in in vitro experiments were dissolved in dimethyl sulfoxide (DMSO) (Kemika, Croatia) at concentrations of 50 mM and 10 mM, and were further diluted to final concentrations of 50 μM and 10 μM in 1 mL Dulbecco's modified Eagle medium (DMEM) supplemented with 1% heat inactivated fetal bovine serum (FBS), 1% L-glutamine, 50 U/ml penicillin, 50 μg/ml streptomycin and 2.5 μg/mL Fungizone (amphotericin B). Media and all media supplements were purchased from Gibco, Australia, except the FBS was purchased from Sigma, USA.
(§2) Peripheral blood leukocytes (PBL) were obtained from venous blood of healthy volunteers by sedimentation on 2% dextran T-500 (Amersham Biosciences, USA) and subsequent centrifugations of leukocyte rich plasma.
(§3) Peripheral blood leukocytes (PBL), isolated as described above, were seeded in a 48-well plate at a concentration of 3 to 5×10^6 cell per well in culture medium consisting of RPMI 1640 medium (Institute of Immunology, Croatia) supplemented with 10% heat-inactivated fetal calf serum (FCS, Biowhittaker, USA), 100 U/ml penicillin (Gibco, Australia), 100 μg/ml streptomycin (Gibco, Australia) and 2 mM L-glutamine (Gibco, Australia), and preincubated with the test compounds for 2 h at 37° C., in an atmosphere of 5% CO2, and 90% humidity. Then, stimuli (Sigma, USA) were added to a final concentration of 2 μg/mL lipopolysaccharide (LPS), 1 μg/mL phorbol 12-myristate 13-acetate (PMA) or 120 μg/mL zymosan. Samples were incubated overnight under conditions described above. At the end of incubation, the supernatants were transferred to eppendorf tubes and centrifuged for 10 min at 1500×g. Concentrations of human TNF-α, IL-1β, IL-6 and IL-8 were determined in cell supernatants by sandwich ELISA, using capture and detection antibodies (R&D Systems, Minneapolis, Minn.) according to the manufacturer's recommendations.
(§4) Inhibition (as percentage) was calculated using the following formula: % inhibition=(1−concentration of cytokines in sample/concentration of cytokines in positive control)×100.
(§5) The positive control refers to LPS-, PMA- or zymosan-stimulated samples that were not preincubated with test compounds.

[2] = tested on: IL-1α; test: Inhibition of IL-1 production by stimulated human peripheral blood leukocytes in vitro; conditions: Homo sapiens, Leukocyte, read-out: Percentage of inhibition of IL-1α production
[3] = tested on: IL-6; test: Inhibition of IL-6 production by stimulated human peripheral blood leukocytes in vitro; conditions: Homo sapiens, Leukocyte, read-out: Percentage of inhibition of IL-6 production
Description: as §1, §2, §3, §4, §5

[4] = tested on: IL-8; test: Inhibition of IL-8 production by stimulated human peripheral blood leukocytes in vitro; conditions: Homo sapiens, Leukocyte, read-out: Percentage of inhibition of IL-8 production
Description: as §1, §2, §3, §4, §5

[5] = tested on: Hep G2; test: Cytotoxicity assay (MTT), Hep G2 cell line; conditions: 24 h
Description: (§6) To determine whether the anti-inflammatory activity of the test compounds was due to observed inhibition of cytokine production and inhibition of proliferation in vitro, and was not a consequence of cellular cytotoxicity, measurement of succinate dehydrogenase activity in living cells was performed. Cells were cultured for 24 h in RPM medium as described above at 37° C. the presence of the test compounds at concentrations of 50 μM and 12.5 μM. MTT [3-(4,5-dimethylthiazole-2-yl)-2,5-diphenyl tetrazolium bromide] (Promega, USA), a detection reagent, was then added and the cultures were incubated for 0.5-2 h. The amount of MTT-Formazan produced was determined using a spectrophotometer at 490 nm (Mosmann, J. Immunol. Methods, 1983, 65: 55-63).
(§7) The percentage of inhibition of cell growth was calculated using the following formula: % inhibition of cell growth=[…].

[6] = tested on: A549; test: Cytotoxicity assay (MTT), A549 cell line; conditions: 24 h
Description: as §6, §7

Row | SMILES | inhibition at 10 µM ([1]; LPS-stimulated PBL) [%] | inhibition at 10 µM ([1]; PMA-stimulated PBL) [%] | inhibition at 10 µM ([1]; zymosan-stimulated PBL) [%] | inhibition at 50 µM ([1]; LPS-stimulated PBL) [%] | inhibition at 50 µM ([1]; PMA-stimulated PBL) [%] | inhibition at 50 µM ([1]; zymosan-stimulated PBL) [%] | inhibition at 10 µM ([2]; LPS-stimulated PBL) [%] | inhibition at 10 µM ([2]; PMA-stimulated PBL) [%] | inhibition at 10 µM ([2]; zymosan-stimulated PBL) [%] | inhibition at 50 µM ([2]; LPS-stimulated PBL) [%] | inhibition at 50 µM ([2]; PMA-stimulated PBL) [%] | inhibition at 50 µM ([2]; zymosan-stimulated PBL) [%] | inhibition at 10 µM ([3]; LPS-stimulated PBL) [%] | inhibition at 10 µM ([3]; PMA-stimulated PBL) [%] | inhibition at 10 µM ([3]; zymosan-stimulated PBL) [%] | inhibition at 50 µM ([3]; LPS-stimulated PBL) [%] | inhibition at 50 µM ([3]; PMA-stimulated PBL) [%] | inhibition at 50 µM ([3]; zymosan-stimulated PBL) [%] | inhibition at 10 µM ([4]; LPS-stimulated PBL) [%] | inhibition at 10 µM ([4]; PMA-stimulated PBL) [%] | other results
1 | CC[C@H]1OC(=O)[C@H](C)[C@@H](O[C@H]2C[C@@](C)(OC)[C@@H](OC(=O)CCNC(C)C)[C@H](C)O2)[C@H](C)[C@@H](O[C@@H]2O[C@H](C)C[C@H](N(C)C)[C@H]2O)[C@](C)(OC)C[C@@H](C)C(=O)N[C@H](C)[C@@H](O)[C@]1(C)O [Example 23] | 0 | 5 | 0 | 19 | 54 | 37 | 2 | 12 | 67 | 39 | 69 | 75 | 0 | 20 | 35 | 14 | 59 | 45 | 0 | 0 | inhibition at 10 µM ([4]; zymosan-stimulated PBL): 22%; inhibition at 50 µM ([4]; LPS-stimulated PBL): 10%; inhibition at 50 µM ([4]; PMA-stimulated PBL): 15%; inhibition at 50 µM ([4]; zymosan-stimulated PBL): 43%; Percentage of inhibition of cell growth ([5]; 12.5 μM): 6%; Percentage of inhibition of cell growth ([5]; 50 μM): 5%; Percentage of inhibition of cell growth ([6]; 12.5 μM): 0%; Percentage of inhibition of cell growth ([6]; 50 μM): 0%
2 | CC[C@H]1OC(=O)[C@H](C)[C@@H](O[C@H]2C[C@@](C)(OC)[C@@H](OC(=O)CCN(C)C3CCCCC3)[C@H](C)O2)[C@H](C)[C@@H](O[C@@H]2O[C@H](C)C[C@H](N(C)C)[C@H]2O)[C@](C)(OC)C[C@@H](C)C(=O)N[C@H](C)[C@@H](O)[C@]1(C)O [Example 25] | 0 | 41 | 19 | 71 | 91 | 88 | 22 | 58 | 82 | 61 | 86 | 93 | 4 | 51 | 51 | 62 | 87 | 86 | 0 | 0 | inhibition at 10 µM ([4]; zymosan-stimulated PBL): 17%; inhibition at 50 µM ([4]; LPS-stimulated PBL): 45%; inhibition at 50 µM ([4]; PMA-stimulated PBL): 34%; inhibition at 50 µM ([4]; zymosan-stimulated PBL): 63%; Percentage of inhibition of cell growth ([5]; 12.5 μM): 10%; Percentage of inhibition of cell growth ([5]; 50 μM): 8%; Percentage of inhibition of cell growth ([6]; 12.5 μM): 8%; Percentage of inhibition of cell growth ([6]; 50 μM): 4%
3 | CC[C@H]1OC(=O)[C@H](C)[C@@H](O[C@H]2C[C@@](C)(OC)[C@@H](OC(=O)CCN3CCN(CC4CCCN(C)C4)CC3)[C@H](C)O2)[C@H](C)[C@@H](O[C@@H]2O[C@H](C)C[C@H](N(C)C)[C@H]2O)[C@](C)(OC)C[C@@H](C)C(=O)N[C@H](C)[C@@H](O)[C@]1(C)O (stereo partly drawn) [Example 33] | 16 | 23 | 16 | 50 | 74 | 53 | 28 | 33 | 55 | 42 | 75 | 85 | 8 | 9 | 13 | 30 | 49 | 40 | 0 | 0 | inhibition at 10 µM ([4]; zymosan-stimulated PBL): 0%; inhibition at 50 µM ([4]; LPS-stimulated PBL): 11%; inhibition at 50 µM ([4]; PMA-stimulated PBL): 10%; inhibition at 50 µM ([4]; zymosan-stimulated PBL): 40%; Percentage of inhibition of cell growth ([5]; 12.5 μM): 5%; Percentage of inhibition of cell growth ([5]; 50 μM): 4%; Percentage of inhibition of cell growth ([6]; 12.5 μM): 0%; Percentage of inhibition of cell growth ([6]; 50 μM): 0%
